Literature values as cited in PMC8153205 (Journal of Inflammation Research, 2021).

System: rheumatoid arthritis
Details: RA clinical trials

NC(=O)c1cnc2[nH]ccc2c1N[C@@H]1[C@@H]2CC3C[C@H]1C[C@@](O)(C3)C2 [peficitinib]
SUCRA for serious adverse events (safety): 0.66
